Test results from PubChem BioAssay AID2740 (NMMLSC, 2010).
“And” between values parts separate entries of the source, which are not always exact repeats. Identical values can stand only once. The source made the active and inactive calls.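 The calls were made as follows: active = compounds whose fitted half-maximal concentration for changing the GFP signal is at or below a set limit; inactive = the rest.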

Test: TOR pathway RPL19A-GFP modulators, concentration series – cell-based, S. cerevisiae, flow cytometry, MLPCN hits, dose response (AID 2740);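 also: background is signal of the same compound in parental non-GFP s288c yeast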
Details: S. cerevisiae RPL19A-GFP strain, flow cytometry fluorescence, 3 h; at 33 µM (top of the series)

| SMILES | GFP fluorescence, lower = active (kMESF (background-subtracted)) |
| --- | --- |
| O=C1N(c2ccccc2C(F)(F)F)O[C@]1(c1ccccc1)C1CCCCC1 | 36.4 (inactive) |
| CCC(=O)Oc1oc(-c2ccccc2)nc1C=Nc1ccccc1OC | 41.6 (inactive) |
| Cc1[nH]c2ccccc2c1C(=O)COC(=O)c1ccc([N+](=O)[O-])s1 | 13.6 (inactive) |
| COc1ccc(C(=O)NC(=S)NNC(=O)c2cnccn2)cc1 | 35.4 (inactive) |
| O=C(O)c1ccn2c(C(=O)c3ccccc3)c(-c3ccccc3)cc2c1 | 39.3 (inactive) |
| COc1ccccc1-c1nc2s/c(=C\c3cccs3)c(=O)n2n1 | 36.9 (inactive) |
| CCN(CC)c1ccc2cc(-c3nc4ccccc4[nH]3)c(=O)oc2c1 | 42.6 (inactive) |
| Cc1[nH]n(-c2ccccc2)c(=O)c1C(c1ccccc1[N+](=O)[O-])C(C#N)C#N (centres undefined) | 24.7 (inactive) |
| O=C(/C=C/c1ccnc2ccccc12)c1cccs1 | 38 (inactive) |
| O=C(COc1ccccc1)N1CCN(c2ncnc3c2cnn3-c2ccccc2)CC1 | 37.1 (inactive) |
| Cc1cc(C)c(S(=O)(=O)N2CCC(C(=O)NCc3ccc(Cl)cc3Cl)CC2)c(C)c1 | 31.7 (inactive) |
| N#Cc1ccc(N=c2ssnc2Cl)cc1 | 42 (inactive) |
| O=C1C2C3C=CC(CO)(O3)C2C(=O)N1c1ccccc1-c1ccccc1 (centres undefined) | 20.9 (inactive) |
| CN(C)c1ccc(/C=C/c2cc[n+](C)cc2)cc1 | 44.5 (inactive) |
| CCCS(=O)(=O)c1nnnn1-c1cccc(OC)c1 | 31.9 (inactive) |
| Oc1c(Br)cc(Br)cc1C=Nc1ccc2c(c1)OCO2 | 40 (inactive) |
| Cc1cccc(N=C2NC(=O)/C(=C/C=C/c3ccco3)S2)c1C | 34.7 (inactive) |
| O=S(=O)(/N=C(\Sc1ccc(Cl)cc1)c1ccccc1)c1ccccc1 | 33.6 (inactive) |
| CC1=C/C(=N\OS(=O)(=O)c2ccccc2)C(C(C)C)=CC1=O | 21.4 (inactive) |
| Oc1c(I)cc(I)c2cccnc12 | 23 (inactive) |

| SMILES | GFP fluorescence, lower = active (kMESF (background-subtracted)) |
| --- | --- |
| COc1ccc(-c2cc3cc(C(=O)O)ccn3c2C(=O)c2ccccc2)cc1 | 43.5 (inactive) |
| COc1ccc(N2C(=O)CC(Sc3ncn[nH]3)C2=O)c(OC)c1 (centres undefined) | 42.2 (inactive) |
| Cc1[nH][nH]c(=O)c1C(c1ccc(-c2ccc(Cl)cc2)o1)c1c(C)[nH][nH]c1=O | 41.2 (inactive) |
| c1ccc(-c2csc(Nc3cccnc3)n2)nc1 | 36.5 (inactive) |
| O=c1[nH]c(-c2ccc(Cl)cc2)cs1 | 41.6 (inactive) |
| O=C(Nc1ccc(NC(=O)c2cc3ccccc3o2)cc1)c1ccc2c(c1)OCCO2 | 40.1 (inactive) |
| O/C=c1\ccc2cccc3nc(C(F)(F)F)nc1c23 | 53.9 (inactive) |
| Cc1cc(/C=C2/SC(=S)N(c3cccc(Cl)c3)C2=O)c(C)n1-c1cccnc1 | 42.7 (inactive) |
| COc1cc(N=c2ssnc2Cl)c(OC)cc1Cl | 22.5 (inactive) and 23.2 (inactive) |
| COc1ccc(N=Nc2ccc(O)c3ncccc23)cc1 | 37.9 (inactive) |
| CC(=O)N(C(C)=O)c1ncnc2c1c(-c1ccc(Cl)cc1)nn2C(C)(C)C | 42.9 (inactive) |
| CCOC(=O)CS(=O)(=O)c1nc(-c2ccccc2)cc(C(F)(F)F)n1 | 44.1 (inactive) |
| c1ccc(-c2cccc(-c3ccccn3)n2)nc1 | 36.2 (inactive) |
| Cc1ccc(/C=c2\sc3nc(-c4cccs4)nn3c2=O)o1 | 44.7 (inactive) |
| O=C(OCn1ncc(Br)c(Br)c1=O)c1c(F)cccc1F | 37.9 (inactive) |
| Cc1ccc(NC(=O)CCc2ccccc2)cc1S(=O)(=O)N1CCOCC1 | 45.9 (inactive) |
| Cc1ccc(N=c2ssnc2Cl)cc1 | 23 (inactive) |
| CC1=CC(=O)C(C(C)C)=C/C1=N/OS(=O)(=O)c1ccccc1 | 23.9 (inactive) |
| COC(=O)CCS(=O)(=O)c1nc(-c2ccccc2)cc(C(F)(F)F)n1 | 37.3 (inactive) |
| O=C(Nc1ccc(N2CCOCC2)cc1)C1CCN(S(=O)(=O)c2ccc3c(c2)OCCO3)CC1 | 34.9 (inactive) |

| SMILES | GFP fluorescence, lower = active (kMESF (background-subtracted)) |
| --- | --- |
| Cc1ccccc1N1C(=O)C(Cl)=C(N2CCN(c3ccccc3)CC2)C1=O | 39.3 (inactive) |
| Cc1ccc(C(CC(=O)O)NC(=O)c2ccc(S(=O)(=O)N3CC(C)OC(C)C3)cc2)cc1 (centres undefined) | 39.2 (inactive) |
| CC(C)[C@]1(c2ccc(Cl)cc2)ON(c2ccccc2C(F)(F)F)C1=O | 40.6 (inactive) |
| Cc1ccc(S(=O)(=O)/N=C(\Sc2ccccc2)c2ccccc2)cc1 | 42 (inactive) |
| O=[N+]([O-])c1ccc(Sc2nc3ccccc3o2)c([N+](=O)[O-])c1 | 45.5 (inactive) |
| O=[N+]([O-])c1cc(CN2CCN(c3ccccc3)CC2)c(O)c2ncccc12 | 45.6 (inactive) |
| Cc1ccccc1[C@@]1(C)ON(c2ccccc2C(F)(F)F)C1=O | 40.6 (inactive) |
| COc1ccc(N2C(=O)C(Cl)=C(Oc3cccc(OC)c3)C2=O)cc1 | 45.6 (inactive) |
| Cc1ccc(/C(N)=N/OC(=O)c2ccc(F)cc2)cc1 | 43.7 (inactive) |
| COc1cccc(/C=C2\C(=O)N(c3cccc(C)c3)C(=O)c3ccccc32)c1 | 42.4 (inactive) |
| COc1cc(/C=C2\C(=O)N(CCC#N)N=C2C)c(Br)cc1OC(C)C | 39.9 (inactive) |
| Cc1c(Cc2ccccc2)c(NCCN(C)C)n2c(nc3ccccc32)c1C#N | 46.6 (inactive) |
| COc1cccc(/C=C/C(=O)c2c(O)cc(C)oc2=O)c1O | 40.4 (inactive) |
| O=C1NC(=O)N(c2ccccc2)C(=O)/C1=C/c1ccc(Sc2ccccc2)o1 | 37.1 (inactive) |
| O=C(O)C1Sc2[nH]c(=O)sc2C2c3cc(Br)ccc3OC(=O)C12 (centres undefined) | 37.8 (inactive) |
| Clc1cccc(CN2COc3c(cc(Cl)c4cccnc34)C2)c1 | 36.5 (inactive) |
| O=C(c1ccc(Cl)cc1)N1CCN(c2cccc3[nH]ccc23)CC1 | 41.9 (inactive) |
| Cc1ccc(/C=C2\SC(=S)N(CC3CCCO3)C2=O)o1 (centres undefined) | 42.5 (inactive) |
| COc1ccc(N=Cc2nc(-c3ccccc3)oc2OC(C)=O)cc1 | 40.2 (inactive) |
